The subject of series [1] is HCT-116 colorectal cancer cells.
The next series can be described thus: in vivo. To be noted: SD, rat, iv, 5 mg/kg.

Procedure for in vivo: Eight week-old SD rats were randomly divided into three groups (doxorubicin, CAELYX and CAELYX+omega liposome), respectively. Each group was anesthetized with 100 mg/kg of ketamine, followed by inserting polyethylene tubes into the jugular vein and the carotid for drug injection and blood gathering, respectively. To the three groups, the doxorubicin solution, CAELYX and a CAELYX+omega liposome mixture were intravenously administered through the jugular vein at a 5 mg/kg doxorubicin dose. Thereafter, 120 μL of blood was collected at 1, 5, 15, 30, 60, 120, 180, 240, 360, 480, 720, 960, 1,440, 2,160 and 2,880 minutes, respectively, and centrifuged, followed by gathering 50 μl of plasma to analyze a doxorubicin concentration through HPLC. In order to prevent blood coagulation after blood gathering, 0.3 mL of physiological saline for injection containing 201U of heparin was flushed. In addition, after drug administration, urine was collected up to 24 hours and measured for volume.
For quantification of doxorubicin concentration in plasma and urine, 100 μL of acetonitrile and 15 μL of 15 μg/mL daunorubicin (internal standard material) were added and well mixed in 50 μL of the plasma or urine, and then centrifuged at 13,000 rpm for 5 minutes to remove the plasma protein. Thereafter, 100 μL of the supernatant was introduced into HPLC column (reversed phase column, particle size 5 inner diameter 4.6 mm, length 250 mm). Mobile phase composed of 68:32 (v/v) mixture of water (pH 2.60) and acetonitrile was used at a flow rate of 1 mL/min. For detection of drugs, a fluorescence detector was used wherein excitation (Ex) wavelength is 475 nm and emission (Em) wavelength is 555 nm.
The plasma concentration of doxorubicin quantified by HPLC assay was used to calculate pharmacokinetic parameters using WinNonlin program. For statistical analysis of the pharmacokinetic parameters among the above three groups, Tukey's test was carried out after performing analysis of variance (ANOVA), wherein P<0.05 is considered to be statistically significant.

Consider `COc1cccc2c1C(=O)c1c(O)c3c(c(O)c1C2=O)C[C@@](O)(C(=O)CO)C[C@@H]3O[C@H]1C[C@H](N)[C@H](O)[C@H](C)O1` [Doxorubicin solution, doxorubicin], for which half-maximal inhibition in series [1] (IC50) required 265 nM. Further, in the series on B16-F10 melanoma cells, the IC50 worked out at 191 nM. Further, in “in vivo”, the exposure (AUC) is 9820 ng·h/mL, the MRT is 1.18 h, the clearance was determined as 8.91 ± 2.06 mL/min/kg and the half-life turned out to be 1.97 h.

As usually defined, the IC50 is the midpoint of a concentration-inhibition curve. Low readings indicate greater potency in that assay, high ones weaker potency in that assay. As a reminder, the AUC is concentration integrated over time. Low readings indicate low exposure, high ones high exposure. For orientation: MRT means a mean duration of stay, worked out from the concentration-time curve. As a reminder, the clearance is the rate of elimination divided by the concentration. Lower therefore signals a low capacity for elimination. Usually half-life stands for the time in which the quantity being followed falls by half.

The values are drawn from patent US12485092B2, “Composition for promoting drug release of drug-delivery liposomes” (INDUSTRY ACADEMY COOPERATION FOUNDATION OF SEJONG UNIVERSITY, priority 2022, dated 2025).
